# Assay results: patent publication US11767305B2, “Advantageous benzofuran compositions for mental disorders or enhancement” (Tactogen Inc, priority 2020, dated 2023)
# Entries after “also recorded” stand apart in the source; their conditions may differ. Read-outs that look alike come from different tables or passages of the source.
# Tests used:
# [1] = biological target: human 5-HT transporter (hSERT) (Homo sapiens (Human), UniProt P31645); experiment: Human serotonin transporter  assay ([3H]imipramine radioligand, CHO cells); type: binding
# Description: Benzofuran derivatives were evaluated for inhibiting the human 5-HT transporter (hSERT) as expressed in CHO cells using an antagonist radioligand assay (Tatsumi, M. et al. (1999), Eur. J Pharmacol., 368: 277-283). […] Test compounds were assayed in three trials at […], and 0.94868 μM.
# SERT = SERT (Homo sapiens (Human), UniProt P31645); experiment: hSERT release assay in CHO cells ([3H]serotonin)
# 5-HT2A receptors = 5-HT2A receptors (Homo sapiens (Human), UniProt P28223); experiment: 5-HT2A agonist and antagonist calcium assay (Calcium NWPLUS, FLIPR); type: cell-based
# Description: The DiscoveRx Calcium NWPLUS Assay was used for detection of changes in intracellular calcium as signalled by an increase of dye fluorescence in cells expressing 5-HT2A receptors. Signal was measured on a fluorescent plate reader equipped with fluidic handling capable of detecting rapid changes in fluorescence upon compound stimulation.
# To conduct the assay, cell lines were expanded from freezer stocks according to standard procedures. Cells (10,000 cells/well) were seeded in a total volume of 50 μL (200 cells/μL) into black-walled, clear-bottom, Poly-D-lysine coated 384-well microplates and incubated at 37-C for the appropriate time prior to testing. DMSO concentration for all readouts was ≤0.2%.
# Assays were performed in 1×DyeLoading Buffer consisting of 1×Dye (DiscoverX, Calcium No WashPLUS kit, Catalog No. 90-0091), 1×Additive A and 2.5 mM Probenecid in HBSS/20 mM Hepes. Probenecid was prepared fresh. Cells were loaded with dye prior to testing. Media was aspirated from cells and replaced with 25 μL Dye Loading Buffer. Test compounds were assayed at 10 concentrations with the highest concentration either 30 or 10 μM and subsequent concentrations using a 0.33 dilution factor. Cells with testing sample were incubated for 45 minutes at 37° C. and then 20 minutes at room temperature. After dye loading, cells were removed from the incubator and 25 μL of 2×compound in HBSS/20 mM Hepes was added using a FLIPR Tetra (MDS). […]
# Compound agonist activity was measured on a FLIPR Tetra. Calcium mobilization was monitored for 2 minutes with a 5 second baseline read. FLIPR read-Area under the curve was calculated for the two minute read. Compound activity was analyzed using CBIS data analysis suite (ChemInnovation, CA). Percentage activity was calculated as 100%×(mean RFU of test sample−mean RFU of vehicle control)/(mean MAX RFU control ligand −mean RFU of vehicle control). For antagonist mode assays, percentage inhibition was calculated as 100%×(1−(mean RFU of test sample−mean RFU of vehicle control)/(mean RFU of EC80 control−mean RFU of vehicle control)).
# [2] = biological target: Nicotinic Acetylcholine Receptor α4β2 (nAchRa4/b2) (Homo sapiens (Human), UniProt P17787+P43681); experiment: Nicotinic acetylcholine receptor α4β2 ion channel blocking assay; type: cell-based
# Description: Cell lines were expanded from freezer stocks according to standard procedures. Cells were seeded in a total volume of 20 μL into black-walled, clear-bottom, Poly-D-lysine coated 384-well microplates and incubated at 37° C. for the appropriate time prior to testing.
# Assays were performed in 1×Dye Loading Buffer consisting of 1×Dye, and 2.5 mM freshly-prepared Probenecid when applicable.
# Test compounds were assayed at 10 concentrations with the highest concentration either 30 or 10 μM and subsequent concentrations using a 0.33 dilution factor.
# Prior to testing, cells were loaded with dye then incubated for 30-60 minutes at 37° C. For antagonist determination, cells were pre-incubated with sample. Dihydro-β-erythroidine was used as a positive control. Intermediate dilution of sample stocks was performed to generate 2-5×sample in assay buffer.
# After dye loading, cells were moved from the incubator and 10-25 μL 2-5×sample was added to cells in the presence of EC80 agonist when appropriate. Cells were incubated for 30 minutes at room temperature in the dark to equilibrate plate temperature. Vehicle concentration was 1%.
# Compound activity was measured on a FLIPRTetra(MDS) and analyzed using CBIS data analysis suite (ChemInnovation, CA). Percentage inhibition was calculated using the following formula: % Inhibition=100%×(1−(mean RLU of test sample−mean RLU of vehicle control)/(mean RLU of EC80 control−mean RLU of vehicle control)).
# 5-HT1BR = 5-HT1BR (Homo sapiens (Human), UniProt P28222); experiment: 5-HT1BR cAMP secondary messenger agonist assay (HitHunter, CHO-K1); type: cell-based
# Description: The 5-HT1BR cAMP secondary messenger agonist assay used a panel of CHO-K1 cell lines stably expressing non-tagged GPCRs that endogenously signal through cAMP. Hit Hunter® cAMP assays monitored the activation of a GPCR via Gi and Gs secondary messenger signaling in a homogenous, non-imaging assay format using DiscoverX Enzyme Fragment Complementation (EFC) with β-galactosidase as the functional endpoint.
# The enzyme was split into two complementary portions: Enzyme Acceptor (EA) and Enzyme Donor (ED). Exogenously introduced ED fused to cAMP (ED-cAMP) competed with endogenously generated cAMP for binding to an anti-cAMP-specific antibody. Active β-galactosidase was formed by complementation of exogenous EA to any unbound ED-cAMP.
# Cell lines were expanded from freezer stocks according to standard procedures. Cells were seeded in a total volume of 20 μL into white walled, 384-well microplates and incubated at 37° C. for the appropriate time prior to testing. cAMP modulation was determined using the DiscoverX HitHunter cAMP XS+ assay.
# For agonist determination, cells were incubated with sample (in the presence of EC80 forskolin to induce response if measuring Gi secondary messenger signaling). Media was aspirated from cells and replaced with 15 μL 2:1 HBSS/10 mM Hepes:cAMP XS+ Ab reagent. Intermediate dilution of sample stocks was performed to generate 4×sample in assay buffer (optionally containing 4×EC80 forskolin). 5 μL of 4×sample was added to cells and incubated at 37° C. or room temperature for 30 or 60 minutes, as appropriate. Final assay vehicle concentration was 1%.
# MAO-A = MAO-A (Homo sapiens (Human), UniProt P21397); experiment: MAO-A inhibition assay (kynuramine); type: biochemical
# Description: MAO-A and test compounds were preincubated at 37° C. for 15 minutes before substrate addition. Test compounds were assayed at 10 concentrations with the highest concentration either 30 or 10 μM and subsequent concentrations using a 0.33 dilution factor. The reaction was initiated by addition of kynuramine and incubated at 37° C. for 30 minutes. The reaction was terminated by addition of NaOH. The amount of 4-hydroquioline formed was determined through spectrofluorimetric readout with the emission detection at 380 nm and excitation wavelength 310 nm.
# DAT = DAT (Homo sapiens (Human), UniProt Q01959); experiment: hDAT release assay in CHO cells ([3H]dopamine)
# 5-HT2B = 5-HT2B (Homo sapiens (Human), UniProt P41595); experiment: 5-HT2B agonist and antagonist calcium assay (Calcium NWPLUS, FLIPR); type: cell-based
# [3] = biological target: T1, serotonin (5-HT) transporter (SERT) (Rattus norvegicus (Rat), UniProt P31652); experiment: Rat synaptosome SERT [3H]5-HT uptake inhibition assay; conditions: Inhibition of [3H]5-HT Uptake at SERT IC50 (nM), 5 nM [3H]5-HT
# [4] = biological target: T1, serotonin (5-HT) transporter (SERT); experiment: Rat synaptosome SERT [3H]5-HT release assay; conditions: [3H]5-HT release via SERT EC50 (nM), 5 nM [3H]5-HT
# [5] = Solubility assessment in FaSSIF V2 media; conditions: room temp, scale up samples of racemic 5-MAPB salts
# healthy human individual = experiment: Human effects of non-racemic 5-MAPB, self-reported ratings (Good, Bad, Open); type: in vivo; conditions: averaged from all sessions, 54 mg 5-MAPB HCl oral in two halves
# Description: The effects of non-racemic 5-MAPB HCl were tested by a healthy human individual at four different ratios of enantiomers plus the racemate as a control: • 54 mg S and 0 mg R (100% S) • 47 mg Sand 7 mg R (87% S) • 36 mg S and 18 mg R (67% S) • 27 mg S and 27 mg R (50% S) • 7 mg S and 47 mg R (13% S)
# Two trials were carried out at each ratio, except for 13% S where only one was conducted. Trials were at least 72 h apart.
# 5-MAPB HCl was dissolved in 1.5 ml distilled water and consumed in two halves, separated by 1 hour. Starting at 3 hours after administration, tablets of 250 mg ascorbic acid and capsules of 300 mg alpha lipoic acid were taken ad libitum (approximately every hour for a total of 4 administrations).
# Measurements were made approximately every 2 hours until post 6 hours and the maximum ratings per session were analyzed. Additionally, an index of good drug effects versus emotional openness, calculated as (Open−Good)/(200, the theoretical maximum of Open+Good), was constructed at each time point and the maximum analyzed. In healthy volunteers, Good Ratings can be considered a predictor of abuse liability. Accordingly, this index can be used as an indicator of the balance of a therapeutic effect (emotional openness) vs abuse liability.
# Historic data of two trials 50 mg RS-5-MAPB Cl from the same individual were also included in the analysis for comparison.
# MDR1-MDCKII = experiment: In vitro absorption assay, MDR1-MDCKII permeability; type: in vitro ADME; conditions: 10 μM
# Description: (§1) The permeability of 10 μM RS-5-MAPB in Caco-2, MDCKII, and MDR1-MDCKII cell line assays was assessed (Table 6). Both the AB and BA directions with and without the addition of a Pgp-specific inhibitor (verapamil), a MRP1 inhibitor (MK571), and an ATP-binding cassette subfamily G member 2 (ABCG2/BCRP) inhibitor (KO143) were measured. Trials were repeated twice, and values averaged.
# Caco-2 = experiment: In vitro absorption assay, Caco-2 permeability; type: in vitro ADME; conditions: for Permeability (Papp, 10^-6 cm/s) A-B / Permeability (Papp, 10^-6 cm/s) B-A: 10 μM
# Description: as §1
# MDCKII = experiment: In vitro absorption assay, MDCKII permeability; type: in vitro ADME; conditions: 10 μM, pH 7.4/7.4
# Description: as §1
# [6] = SERT IC50 (μM), 2 nM [3H]imipramine
# [7] = EC50 SERT (Mean ± SEM, nM), CHO cells expressing hSERT
# [8] = EC50 DAT (Mean ± SEM, nM), CHO cells expressing hDAT
# [9] = IC50 (appeared close to), lowest concentration too high for accurate estimate
# Sequence of MAO-A (P21397 whole entry, looked up, species assumed): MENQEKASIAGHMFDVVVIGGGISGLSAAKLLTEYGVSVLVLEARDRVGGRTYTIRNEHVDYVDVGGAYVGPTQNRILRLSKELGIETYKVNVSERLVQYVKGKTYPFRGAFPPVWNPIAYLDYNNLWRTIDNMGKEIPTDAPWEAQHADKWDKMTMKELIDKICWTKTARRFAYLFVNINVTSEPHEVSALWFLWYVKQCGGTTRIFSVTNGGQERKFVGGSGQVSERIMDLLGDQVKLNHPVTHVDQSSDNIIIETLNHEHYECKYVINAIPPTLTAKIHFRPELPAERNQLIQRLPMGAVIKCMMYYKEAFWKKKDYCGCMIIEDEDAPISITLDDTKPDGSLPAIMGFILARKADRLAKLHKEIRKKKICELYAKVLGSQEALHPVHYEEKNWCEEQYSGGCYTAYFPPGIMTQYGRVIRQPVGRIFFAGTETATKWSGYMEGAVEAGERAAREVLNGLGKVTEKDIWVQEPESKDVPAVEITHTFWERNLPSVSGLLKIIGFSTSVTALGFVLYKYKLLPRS
# Sequence of Nicotinic Acetylcholine Receptor α4β2 (nAchRa4/b2) (P43681 29-627 limits assumed): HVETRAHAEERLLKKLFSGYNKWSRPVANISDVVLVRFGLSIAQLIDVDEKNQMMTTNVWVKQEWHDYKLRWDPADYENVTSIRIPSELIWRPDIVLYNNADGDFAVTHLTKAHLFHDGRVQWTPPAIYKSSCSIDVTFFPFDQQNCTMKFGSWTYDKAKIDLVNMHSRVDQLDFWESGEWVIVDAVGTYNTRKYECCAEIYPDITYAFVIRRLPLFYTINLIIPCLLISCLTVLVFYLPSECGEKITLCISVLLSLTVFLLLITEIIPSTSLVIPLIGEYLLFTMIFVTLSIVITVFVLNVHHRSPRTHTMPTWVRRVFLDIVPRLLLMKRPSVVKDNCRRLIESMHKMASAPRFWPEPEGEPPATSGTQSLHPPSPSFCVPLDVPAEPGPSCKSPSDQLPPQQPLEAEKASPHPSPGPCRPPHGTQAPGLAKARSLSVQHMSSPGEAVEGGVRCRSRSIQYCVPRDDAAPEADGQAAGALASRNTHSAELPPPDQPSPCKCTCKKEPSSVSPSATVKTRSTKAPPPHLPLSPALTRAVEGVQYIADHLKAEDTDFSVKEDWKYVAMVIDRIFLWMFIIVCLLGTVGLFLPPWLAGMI
# Sequence of Nicotinic Acetylcholine Receptor α4β2 (nAchRa4/b2) (P17787 26-502 limits assumed): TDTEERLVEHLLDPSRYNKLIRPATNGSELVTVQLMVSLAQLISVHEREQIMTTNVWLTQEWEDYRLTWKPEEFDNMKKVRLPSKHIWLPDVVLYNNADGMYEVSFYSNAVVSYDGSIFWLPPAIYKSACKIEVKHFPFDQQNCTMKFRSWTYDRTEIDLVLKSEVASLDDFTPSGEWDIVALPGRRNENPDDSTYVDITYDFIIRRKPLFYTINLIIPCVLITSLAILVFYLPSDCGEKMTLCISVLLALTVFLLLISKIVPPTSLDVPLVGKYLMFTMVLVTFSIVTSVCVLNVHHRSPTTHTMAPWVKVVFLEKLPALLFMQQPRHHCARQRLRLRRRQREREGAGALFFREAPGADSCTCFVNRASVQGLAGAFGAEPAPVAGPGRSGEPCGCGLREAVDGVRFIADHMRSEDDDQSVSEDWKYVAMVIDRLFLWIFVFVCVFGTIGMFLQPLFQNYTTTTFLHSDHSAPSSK
# Sequence of 5-HT2B (P41595 whole entry, looked up, species assumed): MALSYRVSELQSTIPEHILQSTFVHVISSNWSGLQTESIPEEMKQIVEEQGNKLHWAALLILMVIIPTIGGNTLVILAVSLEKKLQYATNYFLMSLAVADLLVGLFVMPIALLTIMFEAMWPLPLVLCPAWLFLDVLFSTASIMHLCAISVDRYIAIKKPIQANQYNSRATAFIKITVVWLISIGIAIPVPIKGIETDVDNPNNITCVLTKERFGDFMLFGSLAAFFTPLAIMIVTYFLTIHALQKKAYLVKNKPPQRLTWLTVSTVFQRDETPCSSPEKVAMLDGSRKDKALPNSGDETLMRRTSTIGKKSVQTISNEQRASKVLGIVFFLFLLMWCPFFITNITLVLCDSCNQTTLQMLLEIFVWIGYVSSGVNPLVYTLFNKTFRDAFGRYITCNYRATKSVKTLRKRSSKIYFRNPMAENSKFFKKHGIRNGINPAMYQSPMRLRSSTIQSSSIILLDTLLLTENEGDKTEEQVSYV
compound,measurement,setting,value
"CN[C@H](C)Cc1ccc2occc2c1 [Compound R-5-MAPB, (R)-1-(benzofuran-5-yl)-N-methylpropan-2-amine]",IC50,[1]; [6],2.7 µM
same,EC50,SERT; [7],184 ± 3 nM
same,EC50,5-HT2A receptors,2400 nM
same,IC50,5-HT2A receptors,5340 nM
same,IC50,[2],4240 nM
same,Hill Coef.,5-HT1BR,1.13
same,EC50,5-HT1BR; 5-HT1BR EC50 (μM),0.981 µM
same,EC50,5-HT1BR; 5HT1B Agonist (μM),0.98 µM
same,IC50,MAO-A,3940 nM
same,EC50,DAT; [8],1950 ± 401 nM
same,IC50,5-HT2B,360 nM
same,IC50,[3],150 ± 8.6 nM
same,EC50,[4],29.3 ± 3.7 nM
"CC[C@H](Cc1ccc2occc2c1)NC (stereo in doubt) [Compound R-5-MBPB, 1-(benzofuran-5-yl)-N-methylbutan-2-amine]",IC50,[1]; [9],~0.949 µM
same,IC50,[2],6330 nM
same,IC50,[3],212 ± 36.2 nM
same,EC50,[4],49.5 ± 27.1 nM
Br.CNC(C)Cc1ccc2occc2c1 (stereo not drawn) [Pattern 2B],Solubility,[5],>10000 µg/mL
"CNC(C)Cc1ccc2occc2c1.Cl (stereo not drawn) [Pattern 1A, 5-MAPB hydrochloride]",Solubility,[5],>10000 µg/mL
CNC(C)Cc1ccc2occc2c1.O=C(O)/C=C\C(=O)O (stereo not drawn) [Pattern 10A],Solubility,[5],>10000 µg/mL
"CC[C@@H](Cc1ccc2occc2c1)NC (stereo in doubt) [Compound S-5-MBPB, 1-(benzofuran-5-yl)-N-methylbutan-2-amine]",IC50,[1]; [9],~0.0949 µM
same,IC50,[2],9980 nM
same,IC50,MAO-A,2660 nM
same,IC50,[3],124 ± 35.8 nM
same,EC50,[4],31.2 ± 14.3 nM
CN[C@H](C)Cc1ccc2occc2c1 [75% R-5-MAPB],EC50,SERT; [7],122 ± 13 nM
same,EC50,DAT; [8],794 ± 182 nM
CNC(C)Cc1ccc2occc2c1.Cl (stereo not drawn) [RS-5-MAPB],Bad,healthy human individual; maximum 0-100 rating of bad drug effects,10%
same,Open,healthy human individual; maximum 0-100 rating of emotional openness,45%
same,Good,healthy human individual; maximum 0-100 rating of good drug effects,50%
same,EC50,"SERT; read-out: EC50 SERT (Mean ± SEM), CHO cells expressing hSERT",90 ± 16 nM
same,"Permeability (Papp, 10^-6 cm/s) A-B",MDR1-MDCKII; pH 7.4/7.4,68.7 10^-6 cm/s
same,"Permeability (Papp, 10^-6 cm/s) B-A",MDR1-MDCKII; pH 7.4/7.4,20.5 10^-6 cm/s
same,"Permeability (Papp, 10^-6 cm/s) A-B",MDR1-MDCKII; pH 7.4/7.4 + verapamil,42.8 10^-6 cm/s
same,"Permeability (Papp, 10^-6 cm/s) B-A",MDR1-MDCKII; pH 7.4/7.4 + verapamil,30.4 10^-6 cm/s
same,"Permeability (Papp, 10^-6 cm/s) A-B","Caco-2; Caco-2, pH 7.4/7.4",81 10^-6 cm/s
same,"Permeability (Papp, 10^-6 cm/s) B-A","Caco-2; Caco-2, pH 7.4/7.4",29.1 10^-6 cm/s
same,"Permeability (Papp, 10^-6 cm/s) A-B","Caco-2; Caco-2, pH 7.4/7.4 + KO143",75.3 10^-6 cm/s
same,"Permeability (Papp, 10^-6 cm/s) B-A","Caco-2; Caco-2, pH 7.4/7.4 + KO143",14 10^-6 cm/s
same,"Permeability (Papp, 10^-6 cm/s) A-B","Caco-2; Caco-2, pH 7.4/7.4 + verapamil",37.6 10^-6 cm/s
same,"Permeability (Papp, 10^-6 cm/s) B-A","Caco-2; Caco-2, pH 7.4/7.4 + verapamil",23 10^-6 cm/s
same,absorption and transport (conclusion from permeability assays),"Caco-2; Caco-2, MDCKII and MDR1-MDCKII",well absorbed; also recorded: actively transported through a mechanism that was inhibited by verapamil
same,"Permeability (Papp, 10^-6 cm/s) A-B",MDCKII,82.1 10^-6 cm/s
same,"Permeability (Papp, 10^-6 cm/s) B-A",MDCKII,19.8 10^-6 cm/s
same,EC50,"DAT; read-out: EC50 DAT (Mean ± SEM), CHO cells expressing hDAT",459 ± 48 nM
"CN[C@@H](C)Cc1ccc2occc2c1 [Compound S-5-MAPB, (S)-1-(benzofuran-5-yl)-N-methylpropan-2-amine]",IC50,[1]; [6],3.4 µM
same,EC50,SERT; [7],67 ± 15 nM
same,Hill Coef.,5-HT1BR,1.08
same,EC50,5-HT1BR; 5-HT1BR EC50 (μM),0.161 µM
same,EC50,5-HT1BR; 5HT1B Agonist (μM),0.16 µM
same,IC50,MAO-A,1290 nM
same,EC50,DAT; [8],258 ± 99 nM
same,IC50,[3],60.4 ± 2.8 nM
same,EC50,[4],13 ± 1.2 nM
